Data as given in patent US20250122217A1, “ANHYDROUS CRYSTALLINE FORMS OF 2-((4S)-6-(4-CHLOROPHENYL)-1-METHYL-4H-BENZO[C]ISOXAZOLO[4,5-E]AZEPIN-4-YL)ACETAMIDE” (CONSTELLATION PHARMACEUTICALS. INC., priority 2022, published 2025).

Experiments:
[1] = Competitive slurry experiments of crystalline forms, XRD readout; format: physicochemical; settings: for water activities at which the form is thermodynamically stable: conclusion from the competitive slurries of Table 3; for XRD result of competitive slurry: about 5-7 days
Procedure: The following competitive slurry experiments were performed using inventive anhydrous Form B and monohydrate Form A disclosed in U.S. Pat. No. 9,969,747.
Aqueous mixtures were created and tested in duplicate for water activity at ambient temperature. Amorphous Pelabresib was used to create a saturated solution in the respective solvent. The supernatant was added to solids of monohydrate Form A and anhydrous Form B and allowed to stir at the respective temperature for about 5-7 days. In all samples except for the butanol:water mixture, a small quantity of Form C was also added to the competitive slurry. Form C can be prepared by slurring amorphous pelabresib in water:ethanol (90:10) for about 5 days The results of the competitive slurries are shown below in Table 3.

[2] = Dynamic vapor sorption (DVS); format: physicochemical
in vivo = assay: in vivo; set-up: species or system beagle dogs; settings: male, beagle, dog, po, 5 mg/kg
Procedure: Single dose PK parameters in plasma were determined following oral gavage administration of micronized anhydrous Form B at 5 mg/kg to male beagle dogs (n=6/Group) in 0.5% (w/v) aqueous Methocel (4000 cps). The dose volume of PO groups was 2 mL/kg. For intravenous (0.5 mg/kg) and oral gavage (5 mg/kg), plasma samples were collected at the following time points: 0, 0.25, 0.5, 1, 2, 4, 6, 8, 12, 24 h post dose and analyzed. […] (5 mg/kg, 2.5 mg/mL, suspension).

Row | water activities at which the form is thermodynamically stable [1] [%] | XRD result of competitive slurry ([1]; Form A + Form B (no Form C), 2-butanol:water (95:5), water activity 0.72, 40° C.) | XRD result of competitive slurry ([1]; Form A + Form B (no Form C), 2-butanol:water (95:5), water activity 0.72, RT) | XRD result of competitive slurry ([1]; Form A + Form B + small quantity of Form C, EtOH:water (90:10), water activity 0.54, 40° C.) | XRD result of competitive slurry ([1]; Form A + Form B + small quantity of Form C, EtOH:water (90:10), water activity 0.54, RT) | XRD result of competitive slurry ([1]; Form A + Form B + small quantity of Form C, IPA:water (98:2), water activity 0.27, 40° C.) | XRD result of competitive slurry ([1]; Form A + Form B + small quantity of Form C, IPA:water (98:2), water activity 0.27, RT) | XRD result of competitive slurry ([1]; Form A + Form B + small quantity of Form C, THF:water (10:90), water activity 0.97, 40° C.) | XRD result of competitive slurry ([1]; Form A + Form B + small quantity of Form C, THF:water (10:90), water activity 0.97, RT) | hygroscopicity by DVS ([2]; DVS profile, FIG. 3) | weight gain (DVS) ([2]; at 95% RH) | AUC(0-t) (in vivo) [ng·h/mL] | Cmax (in vivo) [ng/mL] | Tmax (in vivo) [h] | Compound
1 | ≥ 97 | – | – | – | – | – | – | – | – | – | – | – | – | – | Cc1noc2c1-c1ccccc1C(c1ccc(Cl)cc1)=N[C@H]2CC(N)=O (single isomer, unassigned) [Form A, reference compound]
2 | – | Form B | Form B | Form B | Form B | Form B + small peak | Form B | Form A | Form C | – | – | – | – | – | Cc1noc2c1-c1ccccc1C(c1ccc(Cl)cc1)=N[C@H]2CC(N)=O [Pelabresib, 2-((4S)-6-(4-chlorophenyl)-1-methyl-4H-benzo[c]isoxazolo[4,5-e]azepin-4-yl)acetamide]
3 | ≤ 72 | – | – | – | – | – | – | – | – | non-hygroscopic | about 0.5% | 12100 ± 1450 | 1750 ± 225 | 1.17 ± 0.41 | Cc1noc2c1-c1ccccc1C(c1ccc(Cl)cc1)=N[C@H]2CC(N)=O (single isomer, unassigned) [Form B]
